Experimental data taken from US12601743B2, “Methods for treating drug resistant cancers” (The Regents of the University of California, priority 2017, dated 2026).
Entries after “also recorded” stand apart in the source; their conditions may differ.

How the values were obtained:
[1] = system: YAP/TAZ expression in GBM cells; assay: YAP/TAZ expression after PAK4 inhibition (immunoblot); format: cell-based, human; settings: FIG. 3H, FIG. 14C; U87MG, LN229
Procedure: Chemicals. Verteporfin (YAP inhibitor) was purchased from Sigma and used at the concentration of 0.5-10 μM for 24 hours. PF-03758309 (PAK4 inhibitor) was purchased from Chemietek and used at the concentration of 50 nM-1000 nM for 24 hours.
Immunoblotting. Proteins were extracted in RIPA buffer and quantified using the Pierce BCA kit (Thermo Fisher). 10-30 μg of protein was boiled in NuPage buffer (Thermo Fisher) and loaded onto a denaturing SDS-polyacrylamide gel (10%), transferred to PVDF membranes and blotted with anti-mouse or -rabbit HRP-conjugated secondary antibodies (Bio-Rad). The following antibodies were used for immunoblotting: β3 (Cell Signaling), Glut3 (Santa Cruz Biotechnology), YAP (Santa Cruz) YAP-XP (cell signaling), TAZ (Cell Signaling), PAK4 and pPAK4 (Cell Signaling), and Vinculin and β-actin (Sigma-Aldrich) as loading controls.

GBM26 and GBM12 GSCs = assay: GSC cell viability (CELLTITER-GLO), Mayo Clinic β3/Glut3-low models; format: cell-based, human; settings: FIG. 17A-B
Procedure: (§1) Cell viability assay. U87MG, LN229, and LN18 cells were seeded at 1K cells per well in black 96-well plates in DMEM medium (no glucose) with 10% dialyzed FBS±glucose (0-4.5 g/L). Cell viability was determined by Alamar Blue dye (Life Technologies) according to manufacturer's instructions. For GSCs, cells were seeded at 10K cells per well in white 96-well low attachment plates in GSC medium±glucose (0-4.5 g/L). Viable cell numbers were evaluated using a CELLTITER-GLO™ assay kit (Promega). Each condition consisted of, at least, three replicate wells and data were expressed as relative luciferase units or as the percentage of survival of control cells.

Ge479 orthotopic tumors = assay: Orthotopic brain tumor xenograft survival, Ge479; format: in vivo, mice; settings: Ge479 (Glut3 addicted); systemic treatment; FIG. 21
Procedure: Orthotopic brain tumor xenografts. Intracranial transplantation of U87MG or GSC (Ge518 and Ge479) into 6-8-week-old nu/nu nude immunocompromised mice (Charles River Labs) was performed in accordance with the UCSD Institutional Animal Care and Use Committee. U87MG cells bearing β3, Glut3 shRNA or shβ3 ectopically expressing Glut3 as well as shRNA control (15 mice per group) were orthotopically transplanted following washing and resuspension in PBS. Ge479 and Ge518 were orthotopically transplanted following washing and resuspension in DMEM/F12. Mice were treated with vehicle (PBS) or cilengitide (10 mg kg 1 or 30 mg kg 1; 8 mice per group) five days per week. Briefly, with a stereotaxic frame (Stoelting Co.), a small burr hole was made in the skull 2 mm anterior and 2 mm lateral to the bregma. A 31-gauge Hamilton needle/syringe was inserted 3 mm, and 0.25 μl/minute was dispensed (10^5 tumor cells in 2 μl media). A total of 1×10^5 and 3×10^5 cells in 2 μl was injected respectively for U87MG cells and GSCs respectively.

[2] = system: Ge738, GBM6, Ge970.2 and Ge885 GSCs; assay: GSC cell viability (CELLTITER-GLO), GSC with low β3/Glut3 expression; format: cell-based, human; settings: GSC with low β3/Glut3 expression (Ge738, GBM6, Ge970.2, Ge885); FIG. 5D, 5H
Procedure: as §1

[3] = system: GBM14, GBM64 and GBM85 GSCs; assay: GSC cell viability (CELLTITER-GLO), Mayo Clinic models predicted Glut3 addicted; format: cell-based, human; settings: Classical or Proneural, Glut3 addicted signature, FIG. 17B
Procedure: as §1

GBM150 and GBM59 GSCs = assay: GSC cell viability (CELLTITER-GLO), Mayo Clinic models with Glut3 non-addicted signature; format: cell-based, human; settings: mesenchymal, FIG. 17B
Procedure: as §1

glioblastoma = settings: GBM patients; phase III CENTRIC, phase II CORE (Stupp et al., 2014); cited from earlier work

SMILES	YAP/TAZ expression [1]	effect on cell viability (GBM26 and GBM12 GSCs)	survival of mice bearing orthotopic tumors (Ge479 orthotopic tumors)	effect on cell viability [2]	sensitivity (cell viability) [3]	sensitivity (cell viability) (GBM150 and GBM59 GSCs)	overall survival in clinical trials (glioblastoma)
Cc1nc(Nc2n[nH]c3c2CN(C(=O)N[C@H](CN(C)C)c2ccccc2)C3(C)C)c2sccc2n1 [PF-03758309]	decrease of YAP/TAZ expression	–	–	–	–	–	–
CC(C)[C@H]1C(=O)N[C@@H](CCCN=C(N)N)C(=O)NCC(=O)N[C@@H](CC(=O)O)C(=O)N[C@H](Cc2ccccc2)C(=O)N1C [cilengitide, 2-[(2S,5R,8S,11S)-5-benzyl-11-{3-[(diaminomethylidene)amino]propyl}-7-methyl-3,6,9,12,15-pentaoxo-8-(propan-2-yl)-1,4,7,10,13-pentaazacyclopentadecan-2-yl]acetic acid]	–	no effect or a moderate enhancement of viability	dramatically prolongs the survival	moderate enhancement of viability	largely sensitive; also recorded: sensitivity to integrin blockade	largely resistant; also recorded: not affected	failed to meet overall survival endpoints; also recorded: failed to produce a significant overall survival benefit
